Experimental data taken from US20230212519A1, “METHOD FOR PURIFYING CARDIOMYOCYTES” (ORIZURU THERAPEUTICS, INC., priority 2020, published 2023).

Test system: embryoid body containing mixture of cardiomyocytes and non-cardiomyocytes
Test: Sarcomeric α-actinin-positive cell rate by flow cytometer after treatment of embryoid body with compound
Assay type: cell-based, human
Conditions: Experimental Example 4; clinical iPS cell line; embryoid body treated from day 20 for 4 days; FK-228 1-30 nM, Entinostat 0.1-10 μM
Method: On day 20, the embryoid body was recovered in a centrifugal tube, stood until a sediment of the embryoid body was formed, and the supernatant was aspirated while avoiding sucking the embryoid body. The medium was changed with a fresh 13 medium (same medium for myocardial differentiation as in Experimental Example 1), and divided into a 6-well plate with a medium amount of 3 mL/well so that an equal amount of the embryoid body would be placed in each well. Thereafter, an evaluation compound (1 nM to 10 μM) described in Table 1 or DMSO (0.1%) was added. […] It was centrifuged at 500 g for 1 min. The supernatant was removed, a solution of 500 μL of IMDM added with DNase 10 μg/mL and Liberase 100 μg/mL was added per one tube, and the mixture was stood at 37° C. under general oxygen conditions for 1 hr. […] The fixed cells were stained with an anti-sarcomeric α-actinin antibody, and the expression of sarcomeric α-actinin was analyzed with a flow cytometer. […]
On day 20, the embryoid body was recovered in a centrifugal tube, stood until a sediment of the embryoid body was formed, and the supernatant was aspirated while avoiding sucking the embryoid body. […] The fixed cells were stained with an anti-sarcomeric α-actinin antibody, and the sarcomeric α-actinin-positive cell rate was measured by analyzing the expression of sarcomeric α-actinin with a flow cytometer. […]

Nc1ccccc1NC(=O)c1ccc(CNC(=O)OCc2cccnc2)cc1 [Entinostat]
cardiomyocyte rate (sarcomeric α-actinin-positive cell rate): improved
